From patent publication US6426202B1, “Nystatin-resistant Aspergillus terreus CLS 247-13, KCTC 0673BP for preparing triol heptanoic acid employing the same” (priority 1999, dated 2002)

How the values were obtained:
[1] = test system: parent strain Aspergillus terreus CLS216-7; assay: Minimal inhibitory concentration of nystatin, parent strain; type: cell-based; conditions: parent strain CLS216-7
Description: (§1) After incubating the culture in a liquid minimal medium containing nystatin for 1.5-3 hours, it was washed with saline solution, concentrated, diluted properly, and spreaded onto solid minimal medium containing 150 μg/ml of nystatin, and then the resultant was incubated at 28° C. for 8-15 days to isolate viable mutant strains. The isolated mutant strains resistant to nystatin, showing various morphological characteristics, were subcultured on solid minimal media containing increasing concentrations of nystatin (i.e., 150, 160, 170, 180, 190 and 200 […]) to select mutants showing increased resistance. The nystatin-resistant mutants thus obtained were incubated in an agar slant medium for 15-20 days. The spores formed were recovered in a 20% glycerin solution and subjected to liquid culture as disclosed in Example 2 below. As a result, the productivity of mevinolinic acid decreased and a variety of its analogues appeared. The mutant showing a high productivity of triol heptanoic acid of at least 11.5 g/L was selected and named ‘Aspergillus terreus CLS247-13’. Aspergillus terreus CLS247-13 maintained morphological characteristics, resistance to nystatin and high productivity of triol heptanoic acid constantly on a solid minimal medium containing 2 g/L of yeast extract for 10 generations. […]

[2] = test system: mutant strain Aspergillus terreus CLS247-13; assay: Minimal inhibitory concentration of nystatin, mutant strain; type: cell-based
Description: as §1

C[C@@H]1[C@H](O)[C@@H](C)/C=C/C=C/CC/C=C/C=C/C=C/C=C/C(O[C@H]2O[C@H](C)[C@@H](O)[C@H](N)[C@@H]2O)CC2O[C@](O)(CC(O)C(O)CCC(O)CC(O)CC(O)CC(=O)O[C@H]1C)CC(O)C2C(=O)O (stereo partly drawn) [nystatin]
Minimal inhibitory conc. of nystatin [1]: ≦25 μg/ml | Minimal inhibitory conc. of nystatin ([2]; mutant strain CLS247-13): ≦200 μg/ml | increase of minimal inhibitory concentration of nystatin (resistance to nystatin) compared with parent strain ([2]; mutant strain CLS247-13 compared with parent strain CLS216-7): 8 fold
